Where two headings read alike, the source gives them in different places.
How the values were obtained:
GnRH receptors = target: T1, GnRH receptors (Rattus norvegicus, UniProt P30969); test: 125I-leuprorelin binding inhibition, rat pituitary anterior lobe membrane fraction; settings: for IC50: Hill plot; for inhibition at 1 µM: read-out: binding inhibition rate (%) Rat (1 μM)
T1 construct: Anterior lobes of the pituitary glands were isolated from forty Wistar rats; from tissue; host or cells: anterior lobe of the pituitary gland, male Wistar rats
T1 sequence (P30969 1-327): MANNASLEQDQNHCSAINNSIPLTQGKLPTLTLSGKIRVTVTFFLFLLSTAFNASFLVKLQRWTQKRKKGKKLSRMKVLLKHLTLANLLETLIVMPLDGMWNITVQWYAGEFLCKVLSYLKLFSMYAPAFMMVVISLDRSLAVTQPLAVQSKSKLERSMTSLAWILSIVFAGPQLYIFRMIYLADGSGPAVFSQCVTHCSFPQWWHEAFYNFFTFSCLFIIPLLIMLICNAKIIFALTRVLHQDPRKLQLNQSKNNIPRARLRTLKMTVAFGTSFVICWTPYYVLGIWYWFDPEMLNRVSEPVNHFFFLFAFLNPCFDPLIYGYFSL
Description: After stirring, 10 μl of 0.001% H2O2 was added, and a reaction was carried out at room temperature for 20 minutes. By adding 700 μl of a 0.05% TFA (trifluoroacetic acid) solution, the reaction was stopped, followed by purification by reversed-phase HPLC. […] Anterior lobes of the pituitary glands were isolated from forty Wistar rats (8 weeks old, male), and washed with ice-cooled homogenate buffer [25 mM Tris (tris(hydroxymethyl)aminomethane)-HCl, 0.3M sucrose, 1 mM EGTA (glycol-etherdiamine-N,N,N′,N′-tetraacetic acid), 0.25 mM PMSF (phenylmethylsulfonyl fluoride), 10 U/ml aprotinin, […] pepstatin, […] leupeptin, […], 0.03% sodium azide, pH 7.5]. The pituitary tissue was floated in 2 ml of the homogenate buffer and homogenized using a Polytron homogenizer. The homogenate was centrifuged at 700×g for 15 minutes. The supernatant was taken in an ultracentrifuge tube and centrifuged at 100, 000×g for 1 hour to provide a membrane fraction pellet. This pellet was suspended in 2 ml of assay buffer [25 mM Tris-HCl, 1 mM EDTA (ethylenediaminetetraacetic acid), 0.1% BSA (bovine serum albumin), 0.25 mM PMSF, 1 mg/ml pepstatin, 20 mg/ml leupeptin, […], 0.03% sodium azide, pH 7.5) and the suspension was centrifuged at 100,000×g for 1 hour. The membrane fraction recovered as a pellet was resuspended in 10 ml of assay buffer, divided into portions, preserved at −80° C. and thawed when needed. […] Where the rat or bovine pituitary anterior lobe membrane fraction was used, the reaction was conducted at 4° C. for 90 minutes. Where the membrane fraction of the CHO with human GnRH receptors expressed was used, the reaction was carried out at 25° C. for 60 minutes. After each reaction, the reaction mixture was aspirated and filtered through a polyethyleneimine-treated Whatman glass filter (GF-F). […] The expression (TB-SB)/(TB-NSB)×100 (where SB= radioactivity with the compound added, TB=maximum bound radioactivity, NSB=nonspecifically bound radioactivity) was calculated to find the binding inhibition rate (%) of each test compound.

human GnRH receptor = target: T2, human GnRH receptor (Homo sapiens, UniProt P30968); test: 125I-leuprorelin binding inhibition, CHO cell membrane fraction containing human GnRH receptor
T2 construct: expressed in transfected cells; host or cells: CHO (Chinese hamster ovarian) cells
T2 sequence (P30968 1-328): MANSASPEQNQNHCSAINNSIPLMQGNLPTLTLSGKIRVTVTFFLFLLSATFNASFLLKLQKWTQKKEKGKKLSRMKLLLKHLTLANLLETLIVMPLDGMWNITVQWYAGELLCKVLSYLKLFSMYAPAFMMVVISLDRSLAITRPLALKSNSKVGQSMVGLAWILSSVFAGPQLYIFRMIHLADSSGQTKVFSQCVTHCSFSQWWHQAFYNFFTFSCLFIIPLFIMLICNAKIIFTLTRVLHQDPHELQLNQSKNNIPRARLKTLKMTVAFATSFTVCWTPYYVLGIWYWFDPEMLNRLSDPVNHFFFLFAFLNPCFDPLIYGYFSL
Description: After stirring, 10 μl of 0.001% H2O2 was added, and a reaction was carried out at room temperature for 20 minutes. By adding 700 μl of a 0.05% TFA (trifluoroacetic acid) solution, the reaction was stopped, followed by purification by reversed-phase HPLC. […] To the cell pellet, 10 ml of a cell homogenate buffer (10 mM NaHCO3, 5 mM EDTA, pH 7.5) was added, followed by homogenization using the Polytron homogenizer. After centrifugation at 400×g for 15 minutes, the supernatant was transferred to an ultracentrifugation tube and centrifuged at 100,000×g for 1 hour to yield a membrane fraction precipitate. This precipitate was suspended in 2 ml of an assay buffer and centrifuged at 100,000×g for 1 hour. The membrane fraction recovered as a precipitate was again suspended in 20 ml of the assay buffer, dispensed, and stored at −80° C. before use upon thawing. […] Where the rat or bovine pituitary anterior lobe membrane fraction was used, the reaction was conducted at 4° C. for 90 minutes. Where the membrane fraction of the CHO with human GnRH receptors expressed was used, the reaction was carried out at 25° C. for 60 minutes. After each reaction, the reaction mixture was aspirated and filtered through a polyethyleneimine-treated Whatman glass filter (GF-F). […] The expression (TB-SB)/(TB-NSB)×100 (where SB= radioactivity with the compound added, TB=maximum bound radioactivity, NSB=nonspecifically bound radioactivity) was calculated to find the binding inhibition rate (%) of each test compound.

blood LH = test: Suppression of blood LH in castrated monkeys; type: in vivo, cynomolgus monkeys (Macaca fascicularis); settings: castrated male cynomolgus monkeys; 30 mg/kg oral; values only in FIG. 1
Description: The compound produced in Example 1-2 was orally administered to castrated male cynomolgus monkeys (Macaca fascicularis), and blood LH was quantified. The male cynomolgus monkeys, used at 3 years 8 months to 7 years 7 months of age at time of experimentation, had been castrated more than half a year prior to the examination. Test animals [n =2; compound (1) and compound (2)] were given 30 mg/kg (3 ml/kg) of the compound suspended in 0.5% methyl cellulose at a final concentration of 1% by oral administration, and control animals [n=3; control (1), control (2) and control (3)] were given 3 ml/kg of the 0.5% methyl cellulose dispersant alone by oral administration. […]
Plasma LH concentrations were determined by a bioassay using mouse testicular cells. […] The testosterone concentration in the culture supernatant was determined by a radioimmunoassay (CIS Diagnostics Company), and the LH concentration in the test monkey plasma was calculated from the standard curve for the standard equine LH.
For the control (1), the control (2), and the control (3), changes over time in the LH concentrations in each animal are expressed as percent ratios to the respective reference values, which comprise the LH concentrations immediately before administration in each control animal (cynomolgus monkey). […]

[1] = rat pituitary anterior lobe membrane fraction, 125I-leuprorelin

Row | Structure (SMILES) | melting point | also measured
1 | CONC(=O)Nc1ccc(-c2sc3c(c2CN(C)Cc2ccccc2)c(=O)c(C(=O)C(C)C)cn3Cc2c(F)cccc2F)cc1.Cl | 225 to 230 °C | 
2 | CN(Cc1ccccc1)Cc1c(-c2ccc(NC(=O)C(C)(C)O)cc2)sc2c1c(=O)c(C(=O)c1ccccc1)cn2Cc1c(F)cccc1F [Example 22, 3-(N-benzyl-N-methylaminomethyl)-5-benzoyl-7-(2,6-difluorobenzyl)-4,7-dihydro-2-[4-(2-hydroxy-2-methylpropionylamino)phenyl]-4-oxothieno[2,3-b]pyridine] | 222 to 223 °C | 
3 | CC(C)C(=O)c1cn(Cc2c(F)cccc2F)c2sc(-c3ccc(NC(=O)C4(O)CC4)cc3)c(CN(C)Cc3ccccc3)c2c1=O.Cl | 220 to 222 °C | 
4 | CC(C)C(=O)c1cn(Cc2c(F)cccc2F)c2sc(-c3ccc(NC(=O)[C@H](C)CO)cc3)c(CN(C)Cc3ccccc3)c2c1=O.Cl | 214 to 216 °C | 
5 | C[C@H](CO)C(=O)Nc1ccc(-c2sc3c(c2CN(C)Cc2ccccc2)c(=O)c(C(=O)c2ccccc2)cn3Cc2c(F)cccc2F)cc1 [Example 23] | 145 to 146 °C | 
6 | CC(C)C(=O)c1cn(Cc2c(F)cccc2F)c2sc(-c3ccc(NC(=O)C4CC4)cc3)c(CN(C)Cc3ccccc3)c2c1=O.Cl [Example 1-2, 3-(N-benzyl-N-methylaminomethyl)-4,7-dihydro-5-isobutyryl-7-(2,6-difluorobenzyl)-2-(4-cyclopropanecarbonylaminophenyl)-4-oxothieno[2,3-b]pyridine Hydrochloride] | 254 to 256 °C | plasma LH concentrations (blood LH): suppression of plasma LH concentrations; inhibition at 1 µM (GnRH receptors; 1 μM compound, rat pituitary anterior lobe membrane fraction, 125I-leuprorelin, 4° C., 90 minutes): 96%; IC50 (GnRH receptors; [1]): 0.06 µM; inhibition at 20 µM (human GnRH receptor; 20 μM compound, CHO membrane fraction with human GnRH receptors, 125I-leuprorelin, 25° C., 60 minutes, read-out: binding inhibition rate (%) Human (20 μM)): 102%; IC50 (human GnRH receptor; CHO membrane fraction with human GnRH receptors, 125I-leuprorelin, Hill plot, read-out: IC50 value (μM) Human): 0.0001 µM
7 | CN(Cc1ccccc1)Cc1c(-c2ccc(NC(=O)C3(O)CC3)cc2)sc2c1c(=O)c(C(=O)c1ccccc1)cn2Cc1c(F)cccc1F [Example 21] | 186 to 188 °C | 

Continued, in another order:

Row | melting point | Structure (SMILES) | also measured
8 | 216 to 218 °C | CC(C)C(=O)c1cn(Cc2c(F)cccc2F)c2sc(-c3ccc(NC(=O)CC(C)(C)O)cc3)c(CN(C)Cc3ccccc3)c2c1=O.Cl | 
9 | 161 to 162 °C | CC(C)C(=O)c1cn(Cc2c(F)cccc2F)c2sc(-c3ccc(NC(=O)[C@H](C)CO)cc3)c(CN(C)Cc3ccccc3)c2c1=O [Example 10-1, (R)-4,7-dihydro-2-[4-(3-hydroxy-2-methylpropionylamino)phenyl]-7-(2,6-difluorobenzyl)-3-(N-benzyl-N-methylaminomethyl)-5-isobutyryl-4-oxothieno[2,3-b]pyridine] | 
10 | 170 to 172 °C | CC(C)C(=O)Nc1ccc(-c2sc3c(c2CN(C)Cc2ccccc2)c(=O)c(C(=O)C(C)(C)O)cn3Cc2c(F)cccc2F)cc1 [Example 7, 3-(N-benzyl-N-methylaminomethyl)-4,7-dihydro-7-(2,6-difluorobenzyl)-2-(4-isobutyrylaminophenyl)-5-(2-hydroxy-2-methylpropionyl)-4-oxothieno[2,3-b]pyridine] | 
11 | 197 to 199 °C | CC(C)C(=O)c1cn(Cc2c(F)cccc2F)c2sc(-c3ccc(NC(=O)CO)cc3)c(CN(C)Cc3ccccc3)c2c1=O.Cl | 
12 | 161 to 162 °C | CC(C)C(=O)c1cn(Cc2c(F)cccc2F)c2sc(-c3ccc(NC(=O)C(C)CO)cc3)c(CN(C)Cc3ccccc3)c2c1=O (stereo not shown) [Example 3, 3-(N-benzyl-N-methylaminomethyl)-4,7-dihydro-5-isobutyryl-7-(2,6-difluorobenzyl)-2-[4-(3-hydroxy-2-methylpropionylamino)phenyl]-4-oxothieno[2,3-b]pyridine] | IC50 (GnRH receptors; [1]): 0.6 µM; inhibition at 1 µM (GnRH receptors): 62%; IC50 (human GnRH receptor): 0.0002 µM
13 | 213 to 215 °C | CC(C)C(=O)c1cn(Cc2c(F)cccc2F)c2sc(-c3ccc(NC(=O)C(C)(C)O)cc3)c(CN(C)Cc3ccccc3)c2c1=O.Cl | 
14 | 178 to 180 °C | CC(C)C(=O)c1cn(Cc2c(F)cccc2F)c2sc(-c3ccc(NC(=O)C(C)(C)O)cc3)c(CN(C)Cc3ccccc3)c2c1=O [Example 11-1, 4,7-dihydro-2-[4-(2-hydroxy-2-methylpropionylamino)phenyl]-7-(2,6-difluorobenzyl)-3-(N-benzyl-N-methylaminomethyl)-5-isobutyryl-4-oxothieno[2,3-b]pyridine] | 

From patent publication US20010001104A1, “Thienopyridine compounds, their production and use” (priority 1998, published 2001)
